In the supplement of paper PMC10307832:

Compound: CC1(C)CCC(CN2CCN(c3ccc(C(=O)NS(=O)(=O)c4ccc(NCC5CCOCC5)c([N+](=O)[O-])c4)c(Oc4cnc5[nH]ccc5c4)c3)CC2)=C(c2ccc(Cl)cc2)C1 [Venetoclax] + CS(=O)(=O)CCNCc1ccc(-c2ccc3ncnc(Nc4ccc(OCc5cccc(F)c5)c(Cl)c4)c3c2)o1 [Lapatinib] (partner 2 µM)
Experiment: relative viability (nuclei count vs DMSO), 5 days (fraction); higher = more cells survive
Conditions: first compound 0.01 µM
Procedure, shortened: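 Cells from lung cancer lines were seeded into 1536-well plates and, one day later, dosed by pin tool. Treatments were either a single drug or a fixed dose of an anchor drug with five library-drug doses (not always all listed) in √10 steps. After 5 days, nuclei were stained in a one-step fixation (final 0.05% Triton X-100, 1% formaldehyde, 1 ug/ml Hoechst) and counted on 4× images, and relative viability is the treated-to-vehicle nuclei ratio, as the median of duplicate plates.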

Cell Line	relative viability
LXF-289	0.956
NCI-H322M	0.659
HCC-78	0.859
BEN	0.745
HCC-15	0.887
HCC-827	0.234
NCI-H460	0.971
LU99A	0.865
NCI-H2085	0.658
A-427	0.911
NCI-H520	0.86
NCI-H838	0.977
NCI-H1792	0.933
NCI-H596	1.09
NCI-H3122	1.15
201T	1.07
NCI-H1993	0.783

Cell Line	relative viability
HOP-62	1.29
NCI-H1355	1.02
NCI-H2405	1.07
NCI-H1437	0.766
NCI-H661	0.519
CAL-12T	0.584
H3255	0.268
NCI-H2347	0.948
NCI-H1975	1.02
NCI-H1563	0.691
NCI-H1915	0.966
NCI-H2087	0.958
HCC-366	1.1
RERF-LC-KJ	0.813
EKVX	0.191
NCI-H1651	0.92

Same assay, conditions: first compound 0.03162 µM

Cell Line	relative viability
LXF-289	0.925
NCI-H322M	0.601
HCC-78	0.736
BEN	0.781
HCC-15	0.855
HCC-827	0.216
NCI-H460	0.974
LU99A	1
NCI-H2085	0.849
A-427	1.02
NCI-H520	0.979
NCI-H838	1.07
NCI-H1792	0.946
NCI-H596	1.24
NCI-H3122	1.04
201T	0.943
NCI-H1993	0.861

Cell Line	relative viability
HOP-62	1.12
NCI-H1355	1.02
NCI-H2405	1.08
NCI-H1437	0.873
NCI-H661	0.615
CAL-12T	0.74
H3255	0.263
NCI-H2347	0.949
NCI-H1975	0.875
NCI-H1563	1.08
NCI-H1915	0.935
NCI-H2087	1.16
HCC-366	1.01
RERF-LC-KJ	0.844
EKVX	0.22
NCI-H1651	0.885

Same assay, conditions: first compound 0.1 µM

Cell Line	relative viability
LXF-289	0.874
NCI-H322M	0.552
HCC-78	0.604
BEN	0.735
HCC-15	0.774
HCC-827	0.174
NCI-H460	0.994
LU99A	0.884
NCI-H2085	0.749
A-427	1.05
NCI-H520	0.76
NCI-H838	0.962
NCI-H1792	0.869
NCI-H596	0.971
NCI-H3122	1.05
201T	0.959

Cell Line	relative viability
NCI-H1993	0.796
HOP-62	1.02
NCI-H1355	0.968
NCI-H1437	0.758
NCI-H661	0.491
CAL-12T	0.577
H3255	0.195
NCI-H2347	0.983
NCI-H1975	0.903
NCI-H1563	1.14
NCI-H1915	0.918
NCI-H2087	1.07
HCC-366	0.933
RERF-LC-KJ	0.838
EKVX	0.219
NCI-H1651	0.747

Same assay, conditions: first compound 0.3162 µM

Cell Line	relative viability
LXF-289	0.906
NCI-H322M	0.533
HCC-78	0.935
BEN	0.626
HCC-15	0.796
HCC-827	0.191
NCI-H460	0.935
LU99A	0.885
NCI-H2085	0.821
A-427	1.1
NCI-H520	0.903
NCI-H838	0.978
NCI-H1792	0.916
NCI-H596	1.15
NCI-H3122	0.986
201T	1.02
NCI-H1993	0.733

Cell Line	relative viability
HOP-62	1.01
NCI-H1355	0.93
NCI-H2405	1.01
NCI-H1437	0.742
NCI-H661	0.5
CAL-12T	0.61
H3255	0.282
NCI-H2347	0.872
NCI-H1975	0.948
NCI-H1563	1.28
NCI-H1915	0.926
NCI-H2087	1.09
HCC-366	1.04
RERF-LC-KJ	0.832
EKVX	0.193
NCI-H1651	0.905

Same assay, conditions: first compound 1 µM

Cell Line	relative viability
LXF-289	0.809
NCI-H322M	0.57
HCC-78	0.662
BEN	0.613
HCC-15	0.774
HCC-827	0.233
NCI-H460	0.866
LU99A	0.986
NCI-H2085	0.747
A-427	1.13
NCI-H520	0.732
NCI-H838	0.891
NCI-H1792	0.803
NCI-H596	1.11
NCI-H3122	1.05
201T	1.08
NCI-H1993	0.813
HOP-62	0.896
NCI-H1355	0.993
NCI-H2405	1
NCI-H1437	0.703
NCI-H661	0.487
CAL-12T	0.679
H3255	0.319
NCI-H2347	0.922
